Measured values taken from patent US12422443B2, “Amino-substituted chromenoquinoline-based fluorescent marker, and preparation and use thereof” (SOOCHOW UNIVERSITY, priority 2021, dated 2025).

Assays:
[1] = Ultraviolet absorption and fluorescence emission in dichloromethane; format: physicochemical; details: 10 μM in dichloromethane; for highest fluorescence intensity (emission wavelength): excitation 428 nm (1a), 407 nm (1b), 461 nm (1c), 430 nm (1d), slit 3 nm/3 nm (1d: 5 nm/3 nm)
Experimental: The ultraviolet absorption and fluorescence emission performances of the dyes 1a-1d prepared above (at a concentration of 10 μM) in dichloromethane were tested. The horizontal ordinate is the wavelength, and the vertical ordinate is the absorbance and fluorescence intensity, respectively.
(§1) The ultraviolet absorption and fluorescence emission spectra of the fluorescent marker 1a (at a concentration of 10 μM) in dichloromethane are shown in FIG. 3. The fluorescent marker 1a has the maximum absorption at 452 nm (FIG. 3 (a)); and the fluorescent marker 1a has the highest fluorescence intensity at 532 nm (FIG. 3 (e)), where the excitation wavelength is 428 nm, and the slit width is 3 nm/3 nm.
as §1, with “1b” for “1a”, “473” for “452”, “(b));” for “(a));”, “562” for “532”, “(f)),” for “(e)),”, “407” for “428”
as §1, with “1c” for “1a”, “375” for “452”, “(c));” for “(a));”, “546” for “532”, “(g)),” for “(e)),”, “461” for “428”
The ultraviolet absorption and fluorescence emission spectra of the fluorescent marker 1d (at a concentration of 10 μM) in dichloromethane are shown in FIG. 3. The fluorescent marker 1d has the maximum absorption at 429 nm (FIG. 3 (d)); and the fluorescent marker 1d has the highest fluorescence intensity at 495 nm (FIG. 3 (h)), where the excitation wavelength is 430 nm, and the slit width is 5 nm/3 nm.

[2] = Photostability under iodine-tungsten lamp irradiation (residual absorptivity); format: physicochemical; details: 10 μM in acetonitrile, 500 W iodine-tungsten lamp at 25 cm, 6 hrs irradiation
Experimental: The photostability of the above prepared dyes 1a-1d was tested (at a concentration of 10 μM). Dyes 1a-1d and the reference substance Cy7 of corresponding weights were weighed, and respectively dissolved in acetonitrile (at a concentration of 10 μM). All samples were irradiated with a Philips iodine-tungsten lamp (500 W), where the distance between the lamp and the sample was set to 25 cm. An 8 cm-thick sodium nitrite (60 g per liter) cold trap was placed between the lamp and the sample, to eliminate the heat and short-wavelength light. The irradiation was continued for 6 hrs, during which UV and fluorescence were performed every half hour. After six hours, the light stability was measured by residual absorptivity calculated based on the change in the absorption intensity at various times before and after the irradiation. […] It can be seen that dyes 1a-1d have higher photostability compared to cyanine dyes.

[3] = tested on: lipid droplets in Hela cells; assay: Lipid droplet labeling, colocalized confocal imaging with Nile Red in Hela cells; format: cell-based; details: 5 min; for lipid droplet labeling ability (in words): 1a and 1b 6 μM, 1c 5 μM, 1d 8 μM
Description: In the following examples, the cells are imaged by laser confocal microscopy, where excitation at 405 nm is employed in the green light channel, and the fluorescence signal in the range of 468-550 nm is collected; and excitation at 561 nm is employed in the red light channel, and the fluorescence signal in the range of 570-750 nm is collected.
To test the fluorescent labeling ability of the fluorescent marker 1a compared with a commercial lipid droplet marker, the fluorescent marker 1a was prepared into a stock solution in dimethyl sulfoxide, and then added to a conventional cell culture medium, to give a concentration of the fluorescent marker 1a in the cell culture medium of 6 μM. Subsequently, Nile Red (100 nM), a lipid droplet red marker, was added and co-incubated with Hela cells in an incubator at saturated humidity, 37° C., and 5% CO2 for 5 min (the same below); The cells were washed three times with a PBS buffer, and imaged by laser confocal microscopy, where excitation at 405 nm was employed in the green light channel, and the fluorescence signal in the range of 468-550 nm was collected; and excitation at 561 nm was employed in the red light channel, and the fluorescence signal in the range of 570-750 nm was collected. The results are shown in FIG. 5, in which (a) is the bright field, (b) is the cell image with the fluorescent marker 1a, (c) is the cell image with the lipid droplet Red marker, (d) is overlapped image of the green light channel and the red light channel, (e) is the fluorescence intensity of the ROI line in the overlapped image, and (f) is the colocalization assay, where the colocalization coefficient is 0.95.
To verify the labeling effect of the fluorescent marker 1b (6 μM) on lipid droplets in Hela cells, the same experimental method as that with the fluorescent marker 1a was used.
The experimental method with the fluorescent marker 1c (5 μM) was the same as that with the fluorescent marker 1a.
To verify whether Compound 1d can be used in fluorescence imaging of lipid droplets in Hela cells just as the probes 1a-1c do, a cell assay was carried out. The fluorescent marker 1d was prepared into a stock solution in dimethyl sulfoxide, and then added to a conventional cell culture medium, to give a concentration of the fluorescent marker 1d in the cell culture medium of 8 μM. The Hela cells were co-incubated in an incubator at saturated humidity, 37° C., 5% CO2 for 5 min. The cells were washed three times with a PBS buffer, and imaged by laser confocal microscopy, where excitation at 405 nm was employed in the green light channel, and the fluorescence signal in the range of 468-550 nm was collected. […] The results are shown in FIG. 5, in which(s) is the bright field, (t) is the cell image with the fluorescent marker 1d, (u) is the cell image with the lipid droplet Red marker, (v) is overlapped image of the green light channel and the red light channel, (w) is the fluorescence intensity of the ROI line in the overlapped image, and (x) is the colocalization assay, where the colocalization coefficient is 0.90.

[4] = tested on: mitochondria in Hela cells; assay: Mitochondria labeling, colocalized confocal imaging with CMA Ros in Hela cells; format: cell-based
[5] = 6 μM marker with Nile Red (100 nM)

CCN(CC)c1ccc2nc3c(cc2c1)c(=O)oc1ccccc13 [1a]
maximum absorption [1]: 452 nm
highest fluorescence intensity (emission wavelength) [1]: 532 nm
photostability (residual absorptivity) [2]: 46%
colocalization coefficient [3, 5]: 0.95
lipid droplet labeling ability (in words) [3]: has lipid droplet labeling ability in Hela cells

CCN(CC)c1ccc2nc3c(cc2c1)c(=O)oc1cc(N(CC)CC)ccc13 [1b]
maximum absorption [1]: 473 nm
highest fluorescence intensity (emission wavelength) [1]: 562 nm
photostability (residual absorptivity) [2]: 43%
colocalization coefficient [3, 5]: 0.97
lipid droplet labeling ability (in words) [3]: good targeting ability to lipid droplets in Hela cells

CCN(CC)c1ccc2c(c1)oc(=O)c1cc3ccc4ccccc4c3nc12 [1c]
maximum absorption [1]: 375 nm
highest fluorescence intensity (emission wavelength) [1]: 546 nm
photostability (residual absorptivity) [2]: 76%
colocalization coefficient ([3]; 5 μM marker with Nile Red (100 nM)): 0.85
lipid droplet labeling ability (in words) [3]: good targeting ability to lipid droplets in Hela cells

CCN(CC)c1ccc2c(c1)oc(=O)c1cc3c(ccc4nc5c(cc43)c(=O)oc3cc(N(CC)CC)ccc35)nc12 [1d]
mitochondria labeling ability (in words) ([4]; 8 μM): has the ability to label mitochondria
colocalization coefficient ([4]; 8 μM marker with CMA Ros (100 nM)): 0.90
maximum absorption [1]: 429 nm
highest fluorescence intensity (emission wavelength) [1]: 495 nm
photostability (residual absorptivity) [2]: 71%
lipid droplet labeling ability (in words) [3]: does not stain the lipid droplets in the cells
